Test results published in US10800752B2, “Substituted naphtho[2,3-b]furans as water-soluble prodrugs for preventing and/or treating cancer” (BOSTON BIOMEDICAL, INC., priority 2015, dated 2020).
Where a name gives a salt, the structure may show the parent alone.

Legend:
Solubility test = settings: for solubility at 24 hours: pH 2, aqueous buffer, thermodynamic from solid; for solubility (in words): pH 2.0 buffer solution
[1] = Evaluation of a conversion rate to 2-acetylnaphtho[2,3-b]furan-4,9-dione in pH 7.4 phosphate buffer solution; format: physicochemical
Procedure: For test compounds, the decrease rate of the test compounds and the conversion rate thereof to 2-acetylnaphtho[2,3-b]furan-4,9-dione in human plasma, CD1 mouse plasma, and pH 7.4 phosphate buffer solution were measured.
Test compounds were incubated at the concentration of 1 umol/L in human plasma (cat. no. 12250210, COSMO BIO), CD1 mouse plasma (cat. no. AP3054, KAC), and phosphate buffer solution at 37° C., and removed at predetermined times (0, 5, 10, 30, 60, and 120 minutes). After protein-removing treatment was performed, they are analyzed with LC-MS. It should be noted that the protein-removing treatment used acetonitrile containing: 10% volume of 1 mol/L hydrochloric acid; 1% volume of 46% citric acid; and phenytoin as an internal standard.
The measurement condition of LC-MS is as described below. LC-MS condition column: Kinetex 2.6 u PFP 100 A 50×2.1 mm Column temperature: 40° C.
Mobile phase: A: 0.1% formic acid-containing water
• B: 0.1% formic acid-containing acetonitrile A/B(min): 95/5(0)→5/95(3)→5/95(4)→95/5(4.1)→95/5(6) Flow rate: 0.4 mL/min Detection: ESI (positive mode) Injection volume: 10 uL
Measurement values are calculated from the peak area ratio in LC-MS between an internal standard material, phenytoin and an active form, 2-acetylnaphtho[2,3-b]furan-4,9-dione, and are expressed in %.
In the same way as Example 6, the incubation time was set as 120 minutes later, and the conversion rate of each of various test compounds to 2-acetylnaphtho[2,3-b]furan-4,9-dione in human plasma, CD1 mouse plasma, and pH 7.4 phosphate buffer solution was measured. A series of the present compounds were confirmed to be converted to 2-acetylnaphtho[2,3-b]furan-4,9-dione in pH 7.4 phosphate buffer solution in addition to human plasma and CD1 mouse plasma. Therefore, a series of the test compounds of the present invention were confirmed to be converted to the activated form via a route other than an enzymatic conversion.

[2] = Phosphate buffer solution (pH 7.4), 1 umol/L, 37° C., incubation time 120 min
[3] = Phosphate buffer solution (pH 7.4), 1 umol/L, 37° C., incubation time 120 min, dimethanesulfonate salt monohydrate
[4] = Phosphate buffer solution (pH 7.4), 1 umol/L, 37° C., incubation time 120 min, monohydrate
[5] = Phosphate buffer solution (pH 7.4), 1 umol/L, 37° C., incubation time 120 min, monosulfate salt monohydrate
[6] = Phosphate buffer solution (pH 7.4), 1 umol/L, 37° C., incubation time 120 min, trifluoroacetate salt monohydrate

SMILES: CC(=O)c1cc2c(OC(=O)C(C)(C)C)c3ccccc3c(OC(=O)C(C)(C)C)c2o1 [2-acetylnaphtho[2,3-b]furan-4,9-diyl bis(2,2-dimethylpropanoate), reference compound]
- solubility at 24 hours (Solubility test; glycine buffer solution): < 0.1 µg/mL
- solubility (in words) (Solubility test): very low solubility

SMILES: CCCCCCCC(=O)Oc1c2ccccc2c(OC(=O)CCCCCCC)c2oc(C(C)=O)cc12 [2-acetylnaphtho[2,3-b]furan-4,9-diyl dioctanoate, reference compound]
- solubility at 24 hours (Solubility test; glycine buffer solution): < 0.1 µg/mL
- solubility (in words) (Solubility test): very low solubility

SMILES: CC(=O)c1cc2c(OC(=O)NCCCN)c3ccccc3c(OC(=O)NCCCN)c2o1 [Example 1, 2-Acetylnaphtho[2,3-b]furan-4,9-diyl bis((3-aminopropyl)carbamate)dihydrochloride]
- % Measurement value (conversion rate to 2-acetylnaphtho[2,3-b]furan-4,9-dione) [1, 2]: 79%

SMILES: CC(=O)c1cc2c(OC(=O)NCCN)c3ccccc3c(OC(=O)NCCN)c2o1 [Example 2, 2-Acetylnaphtho[2,3-b]furan-4,9-diyl bis((2-aminoethyl)carbamate)dihydrochloride]
- % Measurement value (conversion rate to 2-acetylnaphtho[2,3-b]furan-4,9-dione) [1, 2]: 59%

SMILES: CN[C@@H](CCNC(=O)Oc1c2ccccc2c(OC(=O)NCC[C@@H](NC)C(=O)O)c2cc(C(C)=O)oc12)C(=O)O [Example 3, (S)-4-((((2-Acetyl-4-((((R)-3-carboxy-3-(methylamino)propyl)carbamoyl)oxy)naphtho[2,3-b]furan-9-yl)oxy)carbonyl)amino)-2-(methylamino)butanoic acid dihydrochloride]
- % Measurement value (conversion rate to 2-acetylnaphtho[2,3-b]furan-4,9-dione) [1, 2]: 40%

SMILES: CC(=O)c1cc2c(OC(=O)NCCCN)c3ccccc3c(O)c2o1.Cl [Example 15, 2-Acetyl-9-hydroxynaphtho[2,3-b]furan-4-yl (3-aminopropyl)carbamate hydrochloride]
- % Measurement value (conversion rate to 2-acetylnaphtho[2,3-b]furan-4,9-dione) [1, 2]: 100%

SMILES: CC(=O)c1cc2c(OC(=O)NCCNCCC(=O)O)c3ccccc3c(O)c2o1 [Example 17, 3-((2-((((2-Acetyl-9-hydroxynaphtho[2,3-b]furan-4-yl)oxy)carbonyl)amino)ethyl)amino)prop ionic acid hydrochloride]
- % Measurement value (conversion rate to 2-acetylnaphtho[2,3-b]furan-4,9-dione) [1, 2]: 80%

SMILES: CC(=O)c1cc2c(O)c3ccccc3c(OC(=O)NCCCN)c2o1.Cl [Example 20, 2-Acetyl-4-hydroxynaphtho[2,3-b]furan-9-yl (3-aminopropyl)carbamate hydrochloride]
- % Measurement value (conversion rate to 2-acetylnaphtho[2,3-b]furan-4,9-dione) [1, 2]: 57%

SMILES: CC(=O)c1cc2c(OC(=O)NCCNCC(F)F)c3ccccc3c(OC(=O)NCCNCC(F)F)c2o1.Cl.Cl [Example 44]
- % Measurement value (conversion rate to 2-acetylnaphtho[2,3-b]furan-4,9-dione) ([1]; pH 7.4): 48%

SMILES: CC(=O)c1cc2c(OC(=O)NCCNCC(=O)O)c3ccccc3c(OC(=O)NCCNCC(=O)O)c2o1 [Example 93, 2,2′-((((((2-acetylnaphtho[2,3-b]furan-4,9-diyl)bis(oxy))bis(carbonyl))bis(azanediyl))bis(ethane-2,1-diyl))bis(azanediyl))diacetic acid monohydrochloride dihydrate]
- % Measurement value (conversion rate to 2-acetylnaphtho[2,3-b]furan-4,9-dione) ([1]; Phosphate buffer solution (pH 7.4), 1 umol/L, 37° C., incubation time 120 min, monohydrochloride dihydrate): 72%

SMILES: CC(=O)c1cc2c(OC(=O)NCCNCC(=O)O)c3ccccc3c(OC(=O)NCCNCC(=O)O)c2o1 [Example 94, 2,2′-((((((2-acetylnaphtho[2,3-b]furan-4,9-diyl)bis(oxy))bis(carbonyl))bis-(azanediyl))bis(ethane-2,1-diyl))bis(azanediyl))diacetic acid dimethanesulfonate salt monohydrate]
- % Measurement value (conversion rate to 2-acetylnaphtho[2,3-b]furan-4,9-dione) [1, 3]: 53%

SMILES: CC(=O)c1cc2c(OC(=O)NCCNCC(=O)O)c3ccccc3c(OC(=O)NCCNCC(=O)O)c2o1 [Example 95, 2,2′-((((((2-acetylnaphtho[2,3-b]furan-4,9-diyl)bis(oxy))bis(carbonyl))bis(azanediyl))bis(ethane-2,1-diyl))bis(azanediyl))diacetic acid ditoluenesulfonate salt monohydrate]
- % Measurement value (conversion rate to 2-acetylnaphtho[2,3-b]furan-4,9-dione) [1, 4]: 54%

SMILES: CC(=O)c1cc2c(OC(=O)NCCNCC(=O)O)c3ccccc3c(OC(=O)NCCNCC(=O)O)c2o1 [Example 97, 2,2′-((((((2-acetylnaphtho[2,3-b]furan-4,9-diyl)bis(oxy))bis(carbonyl))bis-(azanediyl))bis(ethane-2,1-diyl))bis(azanediyl))diacetic acid monosulfate salt monohydrate]
- % Measurement value (conversion rate to 2-acetylnaphtho[2,3-b]furan-4,9-dione) [1, 5]: 61%

SMILES: CC(=O)c1cc2c(OC(=O)NCCNCC(=O)O)c3ccccc3c(OC(=O)NCCNCC(=O)O)c2o1 [Example 98, 2,2′-((((((2-acetylnaphtho[2,3-b]furan-4,9-diyl)bis(oxy))bis(carbonyl))bis(azanediyl))bis(ethane-2,1-diyl))bis(azanediyl))diacetic acid 1/3 trifluoroacetate salt monohydrate]
- solubility at 24 hours (Solubility test): > 5000 µg/mL
- % Measurement value (conversion rate to 2-acetylnaphtho[2,3-b]furan-4,9-dione) [1, 6]: 66%

SMILES: CC(=O)c1cc2c(OC(=O)NCCNCCC(=O)O)c3ccccc3c(OC(=O)NCCNCCC(=O)O)c2o1 [Example 99, 3,3′-((((((2-acetylnaphtho[2,3-b]furan-4,9-diyl)bis(oxy))bis(carbonyl))bis(azanediyl))bis(ethane-2,1-diyl))bis(azanediyl))dipropionic acid dimethanesulfonate salt monohydrate]
- % Measurement value (conversion rate to 2-acetylnaphtho[2,3-b]furan-4,9-dione) [1, 3]: 60%

SMILES: CC(=O)c1cc2c(OC(=O)NCCNCCC(=O)O)c3ccccc3c(OC(=O)NCCNCCC(=O)O)c2o1 [Example 100, 3,3′-((((((2-acetylnaphtho[2,3-b]furan-4,9-diyl)bis(oxy))bis(carbonyl))bis(azanediyl))bis(ethane-2,1-diyl))bis(azanediyl))dipropionic acid ditoluenesulfonate salt monohydrate]
- % Measurement value (conversion rate to 2-acetylnaphtho[2,3-b]furan-4,9-dione) [1, 4]: 76%

SMILES: CC(=O)c1cc2c(OC(=O)NCCNCCC(=O)O)c3ccccc3c(OC(=O)NCCNCCC(=O)O)c2o1 [Example 101, 3,3′-((((((2-acetylnaphtho[2,3-b]furan-4,9-diyl)bis(oxy))bis(carbonyl))bis(azanediyl))bis(ethane-2,1-diyl))bis(azanediyl))dipropionic acid dibenzenesulfonate salt]
- % Measurement value (conversion rate to 2-acetylnaphtho[2,3-b]furan-4,9-dione) ([1]; Phosphate buffer solution (pH 7.4), 1 umol/L, 37° C., incubation time 120 min, dibenzenesulfonate salt): 56%

SMILES: CC(=O)c1cc2c(OC(=O)NCCNCCC(=O)O)c3ccccc3c(OC(=O)NCCNCCC(=O)O)c2o1 [Example 102, 3,3′-((((((2-acetylnaphtho[2,3-b]furan-4,9-diyl)bis(oxy))bis(carbonyl))bis-(azanediyl))bis(ethane-2,1-diyl))bis(azanediyl))dipropionic acid monosulfate salt monohydrate]
- % Measurement value (conversion rate to 2-acetylnaphtho[2,3-b]furan-4,9-dione) [1, 5]: 59%

SMILES: CC(=O)c1cc2c(OC(=O)NCCNCCC(=O)O)c3ccccc3c(OC(=O)NCCNCCC(=O)O)c2o1 [Example 103, 3,3′-((((((2-acetylnaphtho[2,3-b]furan-4,9-diyl)bis(oxy))bis(carbonyl))bis(azanediyl))bis(ethane-2,1-diyl))bis(azanediyl))dipropionic acid 1/3 trifluoroacetate salt monohydrate]
- % Measurement value (conversion rate to 2-acetylnaphtho[2,3-b]furan-4,9-dione) [1, 6]: 53%

SMILES: COC(=O)[C@@H](N)CCNC(=O)Oc1c2ccccc2c(OC(=O)NCC[C@H](N)C(=O)OC)c2oc(C(C)=O)cc12 [Example 105, Dimethyl 4,4′-((((2-acetylnaphtho[2,3-b]furan-4,9-diyl)bis(oxy))bis(carbonyl))bis(azanediyl))(2S,2′S)-bis(2-aminobutanoate)ditoluenesulfonate salt monohydrate]
- solubility at 24 hours (Solubility test): > 5000 µg/mL
- % Measurement value (conversion rate to 2-acetylnaphtho[2,3-b]furan-4,9-dione) [1, 4]: 65%

SMILES: COC(=O)[C@@H](N)CCNC(=O)Oc1c2ccccc2c(OC(=O)NCC[C@H](N)C(=O)OC)c2oc(C(C)=O)cc12 [Example 107, Dimethyl 4,4′-((((2-acetylnaphtho[2,3-b]furan-4,9-diyl)bis(oxy))bis(carbonyl))bis(azanediyl))(2S,2′S)-bis(2-aminobutanoate) monosulfate salt monohydrate]
- % Measurement value (conversion rate to 2-acetylnaphtho[2,3-b]furan-4,9-dione) [1, 5]: 50%
